Where two headings read alike, the source gives them in different places.
Tests used:
Type in all cases: cell-based
[1] = test system: Differentiated normal human bronchial epithelial (dNHBE) cells; assay: dNHBE assay: toxicity evaluated microscopically; set-up: unit not given here
Protocol: (§1) Differentiated normal human bronchial epithelial (dNHBE) cells were grown on 6 mm mesh disks in transwell inserts to approximately 1.2×10^6 cells/disk and disks were transferred to individual wells of a 6-well plate. 1 mL of proprietary culture medium was added to the basolateral side of the cells and the apical side was exposed to a humidified 95% air/5% CO2 environment. Cells were cultured at 37° C. for one day and then the mucin layer was removed from the apical side of the cells by repeated (3×) washing with 500 μL 30 mM HEPES buffered saline solution and culture medium on the basal side was replenished.
(§2) Various concentrations of test compounds in medium were applied in duplicate to the apical (140 μL) and basal sides (1 mL) for a 1 hour pre-treatment, followed by addition of 140 μL of virus inoculum to each cell insert on the apical side. The viral inoculum and treatments were removed after 2 hours. Control cells were treated with placebo (culture medium only). Following infection, the apical medium was removed and the basal side was replaced with fresh compound in medium. The cells were maintained at the air-liquid interface, and cell culture medium on the basal side was replaced daily with fresh medium containing test compound. After 4 days, the liquid was removed from the basal side and discarded and virus released into the apical compartment was harvested by the addition of 500 μL of culture medium. The medium was thoroughly mixed, then removed, diluted 1:1 with 40% sucrose and stored at ≤−80° C.
(§3) Concentrations of test compounds that reduced virus yield by 1 log10 (90% effective concentration; EC90) were calculated by regression analysis. The reported EC90 value is the mean of at least two experiments. Potential toxicity of the test compounds was evaluated microscopically.

[2] = test system: Respiratory syncytial virus (RSV) type A, strain A2 (ATCC VR-1540); assay: dNHBE assay: RSV virus yield reduction (EC90); settings: RSV (A2) in dNHBE cells, concentration reducing virus yield by 1 log10, mean of at least two experiments
Protocol: as §1
Respiratory syncytial virus (RSV) type A, strain A2 (ATCC VR-1540), previously passaged in MA-104 cells to make working stock cultures, was diluted 1/10 in medium before infection, using a multiplicity of infection (MOI) of ≤0.03 CCID50 per cell.
as §2
To determine the virus titer from each treated cell culture, MA-104 cells were seeded in 96-well plates and grown overnight (37° C.) to confluence. Samples containing virus were diluted in 10-fold increments in infection medium and 200 μL of each dilution transferred into respective wells of a 96-well microtiter plate. Four microwells were used for each dilution to determine 50% viral endpoints. After 7 days of incubation, each well was scored positive for virus if any cytopathic effect was observed as compared with the uninfected control. The virus dose that was able to infect 50% of the cell cultures (CCID50 per 0.1 mL) was calculated by the Reed-Muench method. This was repeated in duplicate for each test sample, so that values reported are an average of 2 independent CCID5o determinations. Untreated, uninfected cell controls were tested as negative controls. Statistical differences in the titers were evaluated with a one-way analysis of variance (ANOVA) followed by Dunnett's multiple comparisons test compared with the untreated virus controls.
as §3

[3] = test system: human bone marrow progenitor cells (BFU-E); assay: Human bone marrow progenitor cell assay, BFU-E; settings: BFU-E-specific culture, 14-day incubation, colony counts, read-out: Bone Marrow Stem Cell IC50 BFU-E
Protocol: (§4) Select compounds were tested in an in vitro selectivity study with human bone marrow progenitor cells. Fresh human bone marrow progenitor cells (Invitrogen) suspended in either BFU-E or GM-CSF-specific culture medium were added, at 10^5 cells/well, to triplicate serial dilutions of TA in 6-well plates. After 14-day incubations, colony counts were used to determine […] values. BFU-E colonies were confirmed using the benzidene technique. No cytotoxicity was observed from any of the tested compounds.

[4] = test system: human bone marrow progenitor cells (CFU-GM); assay: Human bone marrow progenitor cell assay, CFU-GM (GM-CSF-specific culture); settings: 14-day incubation, colony counts, read-out: Bone Marrow Stem Cell IC50 CFU-GM
Protocol: as §4

iPS cardiomyocytes = assay: iPS cardiomyocyte assay (XTT viability); settings: 72 h, 3 days incubation, XTT staining
Protocol: Select compounds were tested in an in vitro selectivity study with iPS cardiomyocytes. iPS cardiomyocytes (Cellular Dynamics) were seeded in microliter plates at 1.5×10^4 cells per well. After 48-hr incubation, cells were washed and maintenance medium containing 30 serially diluted TA was added in triplicate. After incubating for an additional 3 days, cellviability was measured by staining with XTT and CC50 values were calculated. No cytotoxicity was observed from any of the tested compounds.

[5] = test system: respiratory syncytial virus A2 (ATCC VR-1540); assay: Cytopathic effect assay with RSV A2 in MA-104 cells; settings: human respiratory syncytial virus, MA104, CPE inhibition, neutral red
Protocol: Test compounds were dissolved in DMSO and then prepared in eight half-log dilutions in MEM medium with 50 μg/mL gentamicin and 2% FBS (MA-104 cells only). Each dilution was added to 5 wells of a 96-well plate with 80-100% confluent cells (either MA-104 cells or HEp-2 cells). Three wells of each dilution were infected with respiratory syncytial virus A2 (ATCC VR-1540) and two wells remained uninfected as toxicity controls. After maximum cytopathic effect (CPE) was observed microscopically in untreated virus control wells, plates were stained with neutral red dye for approximately 2 hours, then supernatant dye was removed and the incorporated dye was extracted in 50:50 Sorensen citrate buffer/ethanol and read on a spectrophotometer. Optical density values were normalized based on cell and virus controls, then the concentration of test compound required to inhibit CPE by 50% (EC50) was calculated by regression analysis. The reported EC50 value is the mean of at least two experiments. The concentration of compound that caused 50% CPE in the absence of virus was similarly calculated to determine cytotoxicity (CC50).

[6] = human respiratory syncytial virus

Structure (SMILES)	Visual toxicity [1]	EC90 [2, 6] [µM]	EC50 [5] [µM]	further results
CNc1nc(N)nc2c1ncn2[C@@H]1O[C@](C)(CO[P@@](=O)(N[C@@H](C)C(=O)OC(C)C)Oc2ccccc2)[C@@H](O)[C@H]1F [Compound AB, (S)-Isopropyl 2-(((S)-(((2R,3R,4R,5R)-5-(2-amino-6-(methylamino)-9H-purin-9-yl)-4-fluoro-3-hydroxy-2-methyltetrahydrofuran-2-yl)methoxy)(phenoxy)phosphoryl)amino) propanoate]	>17			EC90 [2]: 0.052 µM; IC50 ([3]; Homo sapiens, 336 h): > 100 µM; IC50 ([4]; Homo sapiens, CFU-GM, 336 h): > 100 µM; IC50 (iPS cardiomyocytes): > 100 µM
CN(C)c1nc(N)nc2c1ncn2[C@@H]1O[C@](C)(CO)[C@@H](O)[C@H]1F [A, (2R,3R,4R,5R)-5-(2-Amino-6-(dimethylamino)-9H-purin-9-yl)-4-fluoro-2-(hydroxymethyl)-2-methyltetrahydrofuran-3-ol]	>306	142	> 306	
CNc1nc(F)nc2c1ncn2[C@@H]1O[C@](CCl)(CO[P@@](=O)(N[C@@H](C)C(=O)OC(C)C)Oc2ccccc2)[C@@H](O)[C@@H]1F [AQ, (S)-Isopropyl 2-(((S)-(((2R,3R,4S,5R)-5-(6-(methylamino)-2-fluoro-9H-purin-9-yl)-2-(chloromethyl)-4-fluoro-3-hydroxytetrahydrofuran-2-yl)methoxy)(phenoxy)phosphoryl)amino) propanoate]	>1.6	0.18		IC50 ([3]; Homo sapiens, 336 h): > 100 µM; IC50 ([4]; Homo sapiens, CFU-GM, 336 h): > 100 µM; IC50 (iPS cardiomyocytes): > 100 µM
CN(C)c1nc(N)nc2c1ncn2[C@@H]1O[C@@](CO)(CCl)[C@@H](O)[C@H]1F [Compound K, (2R,3R,4R,5R)-5-(2-Amino-6-(dimethylamino)-9H-purin-9-yl)-2-(chloromethyl)-4-fluoro-2-(hydroxymethyl)tetrahydrofuran-3-ol]	>277	74.8	> 225	
CC[C@]1(CO)O[C@@H](n2cnc3c(N(C)C)nc(N)nc32)[C@@H](F)[C@@H]1O [Compound U, (2R,3R,4S,5R)-5-(2-Amino-6-(dimethylamino)-9H-purin-9-yl)-2-ethyl-4-fluoro-2-(hydroxymethyl)tetrahydrofuran-3-ol]	>294	> 294	> 294	
CC(C)OC(=O)[C@H](C)NP(=O)(OC[C@@]1(CCl)O[C@@H](n2ccc(N)nc2=O)[C@H](F)C1O)Oc1ccccc1 (stereo in doubt) [Z]	>177	2	> 177	
CC(C)OC(=O)[C@H](C)NP(=O)(OC[C@@]1(C)O[C@@H](n2cnc3c(N(C)C)nc(N)nc32)[C@H](F)[C@@H]1O)Oc1ccccc1 (stereo partly drawn) [B, (2S)-Isopropyl 2-(((((2R,3R,4R,5R)-5-(2-amino-6-(dimethylamino)-9H-purin-9-yl)-4-fluoro-3-hydroxy-2-methyltetrahydrofuran-2-yl)methoxy)(phenoxy)phosphoryl)-amino) propanoate]	>167	5.9	< 168	
Cc1cn([C@H]2C[C@H](N=[N+]=[N-])[C@@H](CO)O2)c(=O)[nH]c1=O [AZT, reference compound]				IC50 [3]: 2.59 µM; IC50 [4]: 4.56 µM
CC(C)OC(=O)[C@H](C)NP(=O)(OC[C@@]1(CCl)O[C@@H](n2cnc3c(N(C)C)nc(N)nc32)[C@H](F)[C@@H]1O)Oc1ccccc1 (stereo partly drawn) [Compound L, (2S)-Isopropyl 2-(((((2R,3R,4R,5R)-5-(2-amino-6-(dimethylamino)-9H-purin-9-yl)-2-(chloromethyl)-4-fluoro-3-hydroxytetrahydrofuran-2-yl)methoxy)(phenoxy)phosphoryl)amino)propanoate]	158	13.5	> 159	
CC[C@]1(COP(=O)(N[C@@H](C)C(=O)OC(C)C)Oc2ccccc2)O[C@@H](n2cnc3c(N(C)C)nc(N)nc32)[C@@H](F)[C@@H]1O (stereo partly drawn) [Compound V, (2S)-Isopropyl 2-(((((2R,3R,4S,5R)-5-(2-amino-6-(dimethylamino)-9H-purin-9-yl)-2-ethyl-4-fluoro-3-hydroxytetrahydrofuran-2-yl)methoxy)(phenoxy)phosphoryl)-amino) propanoate]	164	44.8	> 164	
CC(C)OC(=O)[C@H](C)NP(=O)(OC[C@@]1(CCl)O[C@@H](n2cnc3c(N(C)C)nc(NC(=O)C(C)C)nc32)[C@H](F)[C@@H]1O)Oc1ccccc1 (stereo partly drawn) [Y]			> 142	
CC(C)C(=O)Nc1nc(N(C)C)c2ncn([C@@H]3O[C@@](CO)(CCl)[C@@H](O)[C@H]3F)c2n1 [X]			> 232	
COc1cc2nc(N3CCN(C(=O)C4COc5ccccc5O4)CC3)nc(N)c2cc1OC (stereo not drawn) [Doxazosin, reference compound]				IC50 (iPS cardiomyocytes): 12.5 µM
CNc1nc(N)nc2c1ncn2[C@@H]1O[C@](CCl)(CO[P@@](=O)(N[C@@H](C)C(=O)OC(C)C)Oc2ccccc2)[C@@H](O)[C@@H]1F [AL, (S)-Isopropyl 2-(((S)-(((2R,3R,4S,5R)-5-(2-amino-6-(methylamino)-9H-purin-9-yl)-2-(chloromethyl)-4-fluoro-3-hydroxytetrahydrofuran-2-yl)methoxy)(phenoxy)phosphoryl)amino) propanoate]	>1.6	> 1.6		
COc1nc(N(C)C)c2ncn([C@@H]3O[C@](C)(CO[P@@](=O)(N[C@@H](C)C(=O)OC(C)C)Oc4ccccc4)[C@@H](O)[C@H]3F)c2n1 [AF, (S)-Isopropyl 2-(((S)-(((2R,3R,4R,5R)-5-(6-(dimethylamino)-2-methoxy-9H-purin-9-yl)-4-fluoro-3-hydroxy-2-methyltetrahydrofuran-2-yl)methoxy)(phenoxy)phosphoryl)amino) propanoate]	>16	0.18		
CNc1nc(OC)nc2c1ncn2[C@@H]1O[C@](C)(CO[P@@](=O)(N[C@@H](C)C(=O)OC(C)C)Oc2ccccc2)[C@@H](O)[C@H]1F [AM, (S)-Isopropyl 2-(((S)-(((2R,3R,4R,5R)-5-(6-(methylamino)-2-methoxy-9H-purin-9-yl)-4-fluoro-3-hydroxy-2-methyltetrahydrofuran-2-yl)methoxy)(phenoxy)phosphoryl)amino) propanoate]	>1.7	1.1		
CN(C)c1nc(N)nc2c1ncn2[C@@H]1O[C@](C)(CO)[C@@H](O)[C@@H]1F [Compound S]	>307	> 300	> 306	

From patent US10202412B2, “β-D-2′-deoxy-2′-substituted-4′-substituted-2-substituted-N6-substituted-6-aminopurinenucleotides for the treatment of paramyxovirus and orthomyxovirus infections” (Atea Pharmaceuticals, Inc., priority 2016, dated 2019)
